Patent US11076597B2, “High stress resistant plant growth regulator and preparation method and use thereof” (SHANGHAI INSTITUTES FOR BIOLOGICAL SCIENCES, CHINESE …, priority 2015, dated 2021)
Where two headings read alike, the source gives them in different places.

Assays:
[1] = molecular target: T1, PYR1 receptor-HAB1 protein phosphatase complex (Arabidopsis thaliana, UniProt O49686); test: AlphaScreen assay: promotion of PYR1 receptor binding to PP2C protein phosphatase HAB1; conditions: 6×His-SUMO-tagged PYR1 (whole coding sequence), Biotin-tagged HAB1 (aa 172-511), 100 nM each, pH 7.4, 1.5 h room temperature
T1 construct: made in house; host or cells: E. coli BL21 (DE3)
T1 sequence (O49686 1-191): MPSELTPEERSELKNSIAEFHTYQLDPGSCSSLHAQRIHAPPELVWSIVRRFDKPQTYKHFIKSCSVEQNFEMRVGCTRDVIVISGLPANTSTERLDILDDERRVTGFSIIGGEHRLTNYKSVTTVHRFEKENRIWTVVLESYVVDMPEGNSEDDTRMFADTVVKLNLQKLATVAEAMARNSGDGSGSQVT
T1 sequence (Q9CAJ0 172-511 partner limits assumed): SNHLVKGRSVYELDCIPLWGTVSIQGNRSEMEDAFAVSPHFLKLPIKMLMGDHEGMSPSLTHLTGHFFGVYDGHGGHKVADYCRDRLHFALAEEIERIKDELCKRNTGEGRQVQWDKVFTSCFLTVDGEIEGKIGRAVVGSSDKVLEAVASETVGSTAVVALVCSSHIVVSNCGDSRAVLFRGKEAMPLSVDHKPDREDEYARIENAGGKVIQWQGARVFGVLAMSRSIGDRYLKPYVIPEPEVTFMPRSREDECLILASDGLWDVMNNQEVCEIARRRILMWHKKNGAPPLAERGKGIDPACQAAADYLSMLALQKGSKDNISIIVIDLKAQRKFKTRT
Excerpt: (§1) The construction method of recombinant plasmids for the Arabidopsis thaliana genes PYL1 (amino acid sequence 36-211), PYL2 (amino acid sequence 14-188) with dual tags of 6×His and SUMO sequence and the Arabidopsis thaliana gene HAB1 (amino acid sequence 172-511) with the Biotin tag sequence is described in detail in “A gate-latch-lock mechanism for hormone signaling by abscisic acid receptors” (Nature, Vol 462, 2009). The construction method of recombinant plasmids for PYR1 and PYL7 (whole gene coding sequence) and Soybean GmPYL6 and rice OsPYL2 with dual tags of 6×His and SUMO sequence is the same as that for Arabidopsis PYL2.
(§2) The above recombinant plasmid is transformed into competent cell of E. coli BL21 (DE3) (purchased from NEB company), and inoculated into 200 ml of LB liquid medium containing Amp resistance (purchased from OXOID company) and cultured overnight at 37° C. at 200 rpm; and inoculated into 2 L of LB liquid medium containing Amp resistance at a ratio of 1:50-1:100 for an extended culture, and cultured at 37° C., 200 rpm for 3-4 hours, and at a low temperature of 16° C. until OD600 is about 0.8-1.0. Recombinant plasmids for PYR1/PYL1/PYL2/PYL7/GmPYL6/OsPYL2 with dual tags of 6×His and SUMO sequence were induced overnight with 100 μM of IPTG while HAB1 recombinant plasmid with the Biotin tag sequence was induced simultaneously with 100 μM of IPTG and 40 μM of biotin.
(§3) After 16 hours of induction, the bacterial solution was centrifuged at 4000 rpm for 20 minutes at 4° C. in a low-speed high-capacity centrifuge, and the bacteria cells were collected. Bacteria cells were resuspended in 50 ml of extraction buffer (containing 20 mM Tris, pH 8.0, 200 mM NaCl and 10% (v/v) glycerol) for per 2 L of bacterial solution and then subjected to pressure-breaking at […] and 4° C. for 3-5 times. The broken cells were subjected to ultracentrifugation, centrifuged at 16000 rpm for 30 minutes, and this process was repeated twice. The supernatant was collected and subjected to an affinity chromatography column.
For PYR/PYL proteins with dual tags of 6×His and SUMO sequences, 50 ml of affinity chromatography Ni column (50 ml Ni-NTA column, available from GE) was used. Firstly, the column was equilibrated with 600 ml of 10% buffer B (containing 20 mM Tris, PH 8.0, 200 mM NaCl, 500 mM imidazole and 10% glycerol), and then eluted with 200 ml of 50% buffer B and finally eluted with 100 ml of 100% buffer B. Proteins for crystal analysis were mixed with ulp1 enzyme at a molar ratio of 1000:1 for enzymatic dialysis overnight. The digested proteins were subjected to affinity chromatography on a Ni column once more. The collected solution was subjected to a HiLoad 26/60 Superdex200 gel filtration column (commercially available from GE) and eluted with an elution solution (containing 25 mM Tris, pH 8.0, 200 mM ammonium acetate, 1 mM dithiotreitol and 1 mM EDTA) to further separate and purify the protein.
For a HAB1 protein with a Biotin tag sequence, it was subjected to a 50 ml MBP affinity column (available from GE). The column was firstly equilibrated with 600 ml of 10% buffer C (containing 20 mM Tris, pH 8.0, 200 mM NaCl, 10 mM Maltose and 10% Glycerol), and eluted with 200 ml of 50% buffer C and finally eluted with 100 ml of 100% buffer C. […]

[2] = molecular target: T2, PYL1 receptor-HAB1 protein phosphatase complex (Arabidopsis thaliana, UniProt Q8VZS8); test: AlphaScreen assay: promotion of PYL1 receptor binding to PP2C protein phosphatase HAB1
T2 construct: made in house; host or cells: E. coli BL21 (DE3)
T2 sequence (Q8VZS8 36-211): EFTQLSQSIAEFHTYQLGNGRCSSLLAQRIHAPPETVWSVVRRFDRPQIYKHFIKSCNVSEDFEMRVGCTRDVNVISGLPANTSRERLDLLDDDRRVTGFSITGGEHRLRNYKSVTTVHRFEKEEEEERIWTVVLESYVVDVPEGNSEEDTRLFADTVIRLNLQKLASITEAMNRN
T2 sequence (Q9CAJ0 172-511 partner limits assumed): T1 sequence (Q9CAJ0 172-511 partner limits assumed)
Excerpt: as §1, §2
as §3, with “column. […]” for “column.”

[3] = FIG. 2b, 6×His-SUMO-tagged PYL1 (aa 36-211), Biotin-tagged HAB1 (aa 172-511), 100 nM each, pH 7.4, 1.5 h room temperature, read-out: EC50

| EC50 ([1]; FIG. 2a, read-out: EC50) [µM] | EC50 [2, 3] [µM] | SMILES | EC50 ([1]; EC50, FIG. 2a) [µM] | EC50 ([1]; EC50, FIG. 2h) [µM] | EC50 [2] [µM] |
| --- | --- | --- | --- | --- | --- |
| – | – | CC1=CC(=O)CC(C)(C)[C@@]1(O)/C=C/C(C)=C\C(=O)O [ABA, Abscisic Acid, reference compound] | 3.57 | 4.22 | 1.2 |
| 0.0901 | 0.149 | CCCN1C(=O)OC(C)c2cc(NS(=O)(=O)Cc3c(F)c(F)c(C)c(F)c3F)ccc21 (stereo not shown) [Compound 0224] | – | – | – |
| 0.148 | 0.167 | CCCN1C(=O)OC(C)(C)c2cc(NS(=O)(=O)Cc3c(F)c(F)c(C)c(F)c3F)ccc21 [Compound 0304] | – | – | – |
